Reference: article PMC5833756, “A novel ruthenium complex with xanthoxylin induces S-phase arrest and causes ERK1/2-mediated apoptosis in HepG2 cells through a p53-independent pathway” (Cell Death & Disease, 2018)
Where two headings read alike, the source gives them in different places. Marks after values point to notes of the source that are not given here.

Key:
B16-F10 = assay type: cell-based, mouse
calf thymus DNA = assay: DNA intercalation assay (ethidium bromide displacement); assay type: binding; conditions: 20 μM, cell-free, 15 min
Method: DNA intercalation was assessed by examining the ability of the complex to displace ethidium bromide from ctDNA (Sigma-Aldrich)[36]. […] After a 15 min of incubation at room temperature, fluorescence was measured using the excitation and emission wavelengths of 320 nm and 600 nm, respectively, using the Spectramax Microplate Reader (Molecular Devices).

SCC-15 = assay type: cell-based, human
SCC-4 = assay type: cell-based, human
K-562 = assay type: cell-based, human
MCF-7 = assay type: cell-based, human
HaCAT = assay type: cell-based; conditions: HaCAT (human keratinocyte, non-cancer), 72 h
HepG2 cells [1] = assay type: cell-based, human; conditions: DOX 2 µM, OXA 10 µM, RCX 12 µM
Method: Briefly, the cells were harvested in a permeabilization solution containing 0.1% Triton X-100, 2 µg/mL PI, 0.1% sodium citrate and 100 µg/mL RNAse (all from Sigma-Aldrich) and incubated in the dark for 15 min at room temperature. Finally, cell fluorescence was measured by flow cytometry with a BD LSRFortessa cytometer using BD FACSDiva Software (BD Biosciences) and FlowJo Software 10 (FlowJo Lcc; Ashland, OR, USA). Ten thousand events were evaluated per experiment, and cellular debris was omitted from the analysis.

HepG2 cells [2] = assay: Trypan blue exclusion assay; assay type: cell-based, human; conditions: HepG2, 24 h; DOX 2 µM, OXA 10 µM
PBMC = assay type: cell-based; conditions: PBMC (human peripheral blood mononuclear cells, non-cancer), 72 h
[3] = test system: multicellular spheroids formed from HepG2 cells; assay: 3D multicellular spheroid culture, alamar blue; assay type: cell-based, human; conditions: Homo sapiens; HepG2 3D spheroids, 72 h
Method: HepG2 cells were cultivated in 3D multicellular spheroids. Briefly, 100 μL of cell solution (0.5 × 10^6 cells/mL) was added to a 96-well plate with a cell-repellent surface (Greiner Bio-One, Kremsmünster, Austria) and cultured in complete medium plus 3% Matrigel (BD Biosciences, San Jose, CA, USA). Spheroids with stable structures formed after three days. Then, the spheroids were exposed to a range of drug concentrations for 72 h. The negative control received the vehicle that was used for diluting the complex tested. In the end of the experiment, morphological changes were examined by light microscopy (Olympus BX41, Tokyo, Japan) using Image-Pro software (Media Cybernetics, Inc. Silver Spring, USA), and cell viability was quantified by alamar blue assay as described above.

ACP-02 = assay type: cell-based, human
HSC-3 = assay type: cell-based, human
HL-60 = assay type: cell-based, human
SCC-9 = assay type: cell-based, human
HCT116 = assay type: cell-based, human
AGP-01 = AGP-01 (human ascitic gastric adenocarcinoma), 72 h
[4] = i.p. 21 days, DOX 0.3 mg/kg, 5-FU 10 mg/kg, RCX 2.5 mg/kg
[5] = peripheral blood, i.p. 21 days, DOX 0.3 mg/kg, 5-FU 10 mg/kg, RCX 2.5 mg/kg
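Wherever Final body weight is given: mice bearing subcutaneous HepG2 xenografts, given intraperitoneal doses once daily for 21 days, weighed at start and end, blood leukocytes counted by light microscopy on day 22.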
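Wherever Initial body weight is given: mice bearing subcutaneous HepG2 xenografts, given intraperitoneal doses once daily for 21 days, weighed at start and end, blood leukocytes counted by light microscopy on day 22.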
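Wherever Survival is given: mice bearing subcutaneous HepG2 xenografts, given intraperitoneal doses once daily for 21 days, weighed at start and end, blood leukocytes counted by light microscopy on day 22.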
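Wherever lung histopathological characteristics is given: mice bearing subcutaneous HepG2 xenografts, given intraperitoneal doses once daily for 21 days, weighed at start and end, blood leukocytes counted by light microscopy on day 22.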

With `COc1cccc2c1C(=O)c1c(O)c3c(c(O)c1C2=O)C[C@@](O)(C(=O)CO)C[C@@H]3O[C@H]1C[C@H](N)[C@H](O)[C@H](C)O1` [DOX, doxorubicin] the “selectivity index (SI)” value (B16-F10; IC50 HaCAT / IC50 B16-F10) was 0.2, the “selectivity index (SI)” value (B16-F10; IC50 MRC5 / IC50 B16-F10) was 2.2 and the “selectivity index (SI)” value (B16-F10; IC50 PBMC / IC50 B16-F10) was 8.7. For the same compound, the IC50 (B16-F10; Mus musculus, B16-F10 (murine melanoma), 72 h) was 600 nM, the “displacement of ethidium bromide from ctDNA (fluorescence)” value (calf thymus DNA) was “significantly reduced the fluorescence intensity” and the “selectivity index (SI)” value (SCC-15; IC50 HaCAT / IC50 SCC-15) was 0.1. For the same compound, the “selectivity index (SI)” value (SCC-15; IC50 MRC5 / IC50 SCC-15) was 0.9, the “selectivity index (SI)” value (SCC-15; IC50 PBMC / IC50 SCC-15) was 3.5 and the IC50 (SCC-15; SCC-15 (human oral squamous cell carcinoma), 72 h) was 1500 nM. For the same compound, the lung histopathological characteristics (atelectasis, hemorrhage, inflammation, congestion, doxorubicin 0.3 mg/kg, RCX both doses, 21 days) was “more pronounced in the doxorubicin and RCX (both doses) groups than in the other groups”, the Initial body weight (before treatment, DOX 0.3 mg/kg, 5-FU 10 mg/kg, RCX 2.5 mg/kg groups) was 22.3 ± 0.4 g and the Final body weight [4] was 19.5 ± 0.6 g. The Survival [4] was 14/14, the “Differential leukocytes: Eosinophils” value [5] was 1.0% and the “Differential leukocytes: Lymphocytes” value [5] was 49.3%. For the same compound, the “Differential leukocytes: Monocytes” value [5] was 1.0%, the “Differential leukocytes: Neutrophils” value [5] was 48.8% and the Erythrocytes [5] was 8.9 ± 0.7 10^6cells/μL. The Total leukocytes [5] was 1.5 ± 0.2* 10^3cells/μL, the “selectivity index (SI)” value (SCC-4; IC50 HaCAT / IC50 SCC-4) was 0.1 and the “selectivity index (SI)” value (SCC-4; IC50 MRC5 / IC50 SCC-4) was 0.6. The “selectivity index (SI)” value (SCC-4; IC50 PBMC / IC50 SCC-4) was 2.5, the IC50 (SCC-4; SCC-4 (human oral squamous cell carcinoma), 72 h) was 2100 nM and the “selectivity index (SI)” value (K-562; IC50 HaCAT / IC50 K-562) was 0.1. For the same compound, the “selectivity index (SI)” value (K-562; IC50 MRC5 / IC50 K-562) was 1.3, the “selectivity index (SI)” value (K-562; IC50 PBMC / IC50 K-562) was 5.2 and the IC50 (K-562; K562, K-562 (human chronic myelogenous leukemia), 72 h) was 1000 nM. The “selectivity index (SI)” value (MCF-7; IC50 HaCAT / IC50 MCF-7) was 0.1, the “selectivity index (SI)” value (MCF-7; IC50 MRC5 / IC50 MCF-7) was 1.2 and the “selectivity index (SI)” value (MCF-7; IC50 PBMC / IC50 MCF-7) was 4.7. The IC50 (MCF-7; MCF7, MCF-7 (human breast adenocarcinoma), 72 h) was 1100 nM, the IC50 (HaCAT) was 100 nM and the “DNA content G0/G1” value (HepG2 cells [1]; HepG2, 12 h) was 51.9 ± 4.8%. For the same compound, the “DNA content G2/M” value (HepG2 cells [1]; HepG2, 12 h) was 22.6 ± 2.6%, the “DNA content S” value (HepG2 cells [1]; HepG2, 12 h) was 6.9 ± 0.1% and the “DNA content Sub-G0/G1” value (HepG2 cells [1]; HepG2, 12 h) was 13.4 ± 1.2 %. For the same compound, the “DNA content G0/G1” value (HepG2 cells [1]; HepG2, 24 h) was 20.9 ± 3.3 %, the “DNA content G2/M” value (HepG2 cells [1]; HepG2, 24 h) was 66.9 ± 5.5 % and the “DNA content S” value (HepG2 cells [1]; HepG2, 24 h) was 8.9 ± 2.3 %. The “DNA content Sub-G0/G1” value (HepG2 cells [1]; HepG2, 24 h) was 16.8 ± 4.3 %, the “DNA content G0/G1” value (HepG2 cells [1]; HepG2, 48 h) was 34.6 ± 2.7 % and the “DNA content G2/M” value (HepG2 cells [1]; HepG2, 48 h) was 31.1 ± 3.3 %. For the same compound, the “DNA content S” value (HepG2 cells [1]; HepG2, 48 h) was 9.1 ± 1.9%, the “DNA content Sub-G0/G1” value (HepG2 cells [1]; HepG2, 48 h) was 20.9 ± 1.0 % and the “DNA content G0/G1” value (HepG2 cells [1]; HepG2, 72 h) was 31.6 ± 5.1 %. The “DNA content G2/M” value (HepG2 cells [1]; HepG2, 72 h) was 16.3 ± 1.1%, the “DNA content S” value (HepG2 cells [1]; HepG2, 72 h) was 12.5 ± 1.1% and the “DNA content Sub-G0/G1” value (HepG2 cells [1]; HepG2, 72 h) was 46.6 ± 2.8 %. The “change in the number of viable cells” value (HepG2 cells [2]) was “reduced the number of viable cells”, the IC50 (PBMC) was 5200 nM and the IC50 [3] was 18100 nM. For the same compound, the IC50 (ACP-02; ACP-02 (human gastric adenocarcinoma), 72 h) was 6800 nM, the “selectivity index (SI)” value (ACP-02; IC50 HaCAT / IC50 ACP-02) was 0.02 and the “selectivity index (SI)” value (ACP-02; IC50 MRC5 / IC50 ACP-02) was 0.2. For the same compound, the “selectivity index (SI)” value (ACP-02; IC50 PBMC / IC50 ACP-02) was 0.8, the IC50 (HSC-3; HSC-3 (human oral squamous cell carcinoma), 72 h) was 400 nM and the “selectivity index (SI)” value (HSC-3; IC50 HaCAT / IC50 HSC-3) was 0.3. The “selectivity index (SI)” value (HSC-3; IC50 MRC5 / IC50 HSC-3) was 3.3, the “selectivity index (SI)” value (HSC-3; IC50 PBMC / IC50 HSC-3) was 13 and the IC50 (HL-60; HL-60 (human promyelocytic leukemia), 72 h) was 200 nM. The “selectivity index (SI)” value (HL-60; IC50 HaCAT / IC50 HL-60) was 0.5, the “selectivity index (SI)” value (HL-60; IC50 MRC5 / IC50 HL-60) was 6.5 and the “selectivity index (SI)” value (HL-60; IC50 PBMC / IC50 HL-60) was 26. The “selectivity index (SI)” value (SCC-9; IC50 HaCAT / IC50 SCC-9) was 0.04, the “selectivity index (SI)” value (SCC-9; IC50 MRC5 / IC50 SCC-9) was 0.5 and the “selectivity index (SI)” value (SCC-9; IC50 PBMC / IC50 SCC-9) was 2. The IC50 (SCC-9; SCC-9 (human oral squamous cell carcinoma), 72 h) was 2600 nM, the IC50 (HCT116; HCT-116, HCT116 (human colon carcinoma), 72 h) was 200 nM and the “selectivity index (SI)” value (HCT116; IC50 HaCAT / IC50 HCT116) was 0.5. For the same compound, the “selectivity index (SI)” value (HCT116; IC50 MRC5 / IC50 HCT116) was 6.5, the “selectivity index (SI)” value (HCT116; IC50 PBMC / IC50 HCT116) was 26 and the IC50 (AGP-01) was 1900 nM.
